Measured values as given in ChEMBL document CHEMBL4765305, “Elephantopinolide A-P, germacrane-type sesquiterpene lactones from Elephantopus scaber induce apoptosis, autophagy and G2/M phase arrest in hepatocellular carcinoma cells” (Eur J Med Chem, 2020).
pIC50: −log10 of the molar value. Calls of active or inactive are those of the source. No cut-off for these calls is given here.

Tests used:
Hep 3B2 [1] = test: Anti-hepatoma activity against human Hep3B cells assessed as cell growth inhibition by MTT assay; type: functional, cell-based
HepG2 [2] = test: Anti-hepatoma activity against human HepG2 cells assessed as cell growth inhibition by MTT assay; type: functional, cell-based
HepG2 [3] = test: Induction of apoptosis in human HepG2 cells assessed as early apoptotic cells at 9 uM incubated for 48 hrs by AnnexinV-FITC and propidium iodide staining based flow cytometry analysis (reference value: 2.45%); type: functional
HepG2 [4] = test: Induction of autophagy in human HepG2 cells at 9 uM by MDC staining based flow cytometry analysis (reference value: 4.46%); type: functional
HepG2 [5] = test: Induction of apoptosis in human HepG2 cells assessed as increase in caspase-3 activity measured after 2 hrs by microplate reader; type: functional, cell-based; settings: dose 3-9 µM
Hep 3B2 [6] = test: Induction ROS generation in human Hep3B cells assessed as intracellular ROS level measured after 1 hrs by H2DCF-DA probe based flow cytometry (reference value: 4.24 %); type: functional
HepG2 [7] = test: Induction of apoptosis in human HepG2 cells assessed as cell shrinkage upto 9 uM incubated for 48 hrs by phase contrast microscopy; type: functional, cell-based; settings: dose microM <=9, time 48.0 hrs
HepG2 [8] = test: Induction of apoptosis in human HepG2 cells assessed as early apoptotic cells at 3 uM incubated for 48 hrs by AnnexinV-FITC and propidium iodide staining based flow cytometry analysis (reference value: 2.45%); type: functional
HepG2 [9] = test: Induction of apoptosis in human HepG2 cells assessed as nuclear fragmentation at 3 to 9 uM incubated for 48 hrs by Hoechst 33258 staining based fluorescence microscopy analysis; type: functional, cell-based; settings: dose 3-9 µM
Hep 3B2 [10] = test: Induction ROS generation in human Hep3B cells assessed as intracellular ROS level measured after 30 mins by H2DCF-DA probe based flow cytometry (reference value: 4.24 %); type: functional; settings: 0.5 h
Hep 3B2 [11] = test: Induction of autophagy in human Hep3B cells at 6 uM by MDC staining based flow cytometry analysis (reference value: 3.52%); type: functional
HepG2 [12] = test: Induction of apoptosis in human HepG2 cells assessed as late apoptotic cells at 9 uM incubated for 48 hrs by AnnexinV-FITC and propidium iodide staining based flow cytometry analysis (reference value: 2.46%); type: functional
HepG2 [13] = test: Induction ROS generation in human HepG2 cells assessed as intracellular ROS level measured after 1 hrs by H2DCF-DA probe based flow cytometry (reference value: 5.05%); type: functional
HepG2 [14] = test: Induction of apoptosis in human HepG2 cells assessed as membrane blebbing upto 9 uM incubated for 48 hrs by phase contrast microscopy; type: functional, cell-based; settings: dose microM <=9, time 48.0 hrs
Hep 3B2 [15] = test: Induction of autophagy in human Hep3B cells at 3 uM by MDC staining based flow cytometry analysis (reference value: 3.52%); type: functional
HepG2 [16] = test: Induction of cell cycle arrest in human HepG2 cells assessed as accumulation at G2/M phase by PI-staining based flow cytometric analysis; type: functional
HepG2 [17] = test: Induction of apoptosis in human HepG2 cells assessed as late apoptotic cells at 6 uM incubated for 48 hrs by AnnexinV-FITC and propidium iodide staining based flow cytometry analysis (reference value: 2.46%); type: functional
Hep 3B2 [18] = test: Induction of cell cycle arrest in human Hep3B cells assessed as accumulation at G2/M phase by PI-staining based flow cytometric analysis; type: functional
Hep 3B2 [19] = test: Induction of apoptosis in human Hep3B cells assessed as early apoptotic cells at 6 uM incubated for 48 hrs by AnnexinV-FITC and propidium iodide staining based flow cytometry analysis (reference value: 3.05%); type: functional
HepG2 [20] = test: Induction of apoptosis in human HepG2 cells assessed as early apoptotic cells at 6 uM incubated for 48 hrs by AnnexinV-FITC and propidium iodide staining based flow cytometry analysis (reference value: 2.45%); type: functional
Hep 3B2 [21] = test: Induction of apoptosis in human Hep3B cells assessed as late apoptotic cells at 3 uM incubated for 48 hrs by AnnexinV-FITC and propidium iodide staining based flow cytometry analysis (reference value: 3.32%); type: functional
HepG2 [22] = test: Induction of apoptosis in human HepG2 cells assessed as increase in Bax level at 3 to 9 uM measured by western blot analysis; type: functional, cell-based; settings: dose 3-9 µM
HepG2 [23] = test: Activation of ERK phosphorylation in human HepG2 cells by Western blot analysis; type: cell-based; settings: filed as activator, dose 3-9 µM
HepG2 [24] = test: Induction of apoptosis in human HepG2 cells assessed as increase in cleaved caspase-3 activity measured by western blot analysis; type: functional, cell-based; settings: dose 3-9 µM
Hep 3B2 [25] = test: Induction of apoptosis in human Hep3B cells assessed as increase in caspase-3 activity measured after 2 hrs by microplate reader; type: functional, cell-based; settings: dose 3-9 µM
Hep 3B2 [26] = test: Induction of apoptosis in human Hep3B cells assessed as nuclear fragmentation at 3 to 9 uM incubated for 48 hrs by Hoechst 33258 staining based fluorescence microscopy analysis; type: functional, cell-based; settings: dose 3-9 µM
Hep 3B2 [27] = test: Induction of apoptosis in human Hep3B cells assessed as cell shrinkage upto 9 uM incubated for 48 hrs by phase contrast microscopy; type: functional, cell-based; settings: dose microM <=9, time 48.0 hrs
Hep 3B2 [28] = test: Induction of mitochondrial membrane potential loss in human Hep3B cells measured after 48 hrs by JC-1 staining based flow cytometry analysis; type: functional, cell-based; settings: dose 3-9 µM
Hep 3B2 [29] = test: Induction of apoptosis in human Hep3B cells assessed as early apoptotic cells at 9 uM incubated for 48 hrs by AnnexinV-FITC and propidium iodide staining based flow cytometry analysis (reference value: 3.05%); type: functional
HepG2 [30] = test: Induction ROS generation in human HepG2 cells assessed as intracellular ROS level measured after 2 hrs by H2DCF-DA probe based flow cytometry (reference value: 5.05%); type: functional
Hep 3B2 [31] = test: Induction of apoptosis in human Hep3B cells assessed as late apoptotic cells at 6 uM incubated for 48 hrs by AnnexinV-FITC and propidium iodide staining based flow cytometry analysis (reference value: 3.32%); type: functional
Hep 3B2 [32] = test: Induction of apoptosis in human Hep3B cells assessed as nuclear condensation at 3 to 9 uM incubated for 48 hrs by Hoechst 33258 staining based fluorescence microscopy analysis; type: functional, cell-based; settings: dose 3-9 µM
Hep 3B2 [33] = test: Induction of apoptosis in human Hep3B cells assessed as membrane blebbing upto 9 uM incubated for 48 hrs by phase contrast microscopy; type: functional, cell-based; settings: dose microM <=9, time 48.0 hrs
HepG2 [34] = test: Induction of autophagy in human HepG2 cells at 6 uM by MDC staining based flow cytometry analysis (reference value: 4.46%); type: functional
HepG2 [35] = test: Induction of autophagy in human HepG2 cells at 3 uM by MDC staining based flow cytometry analysis (reference value: 4.46%); type: functional
Hep 3B2 [36] = test: Induction ROS generation in human Hep3B cells assessed as intracellular ROS level measured after 4 hrs by H2DCF-DA probe based flow cytometry (reference value: 4.24 %); type: functional
Hep 3B2 [37] = test: Induction ROS generation in human Hep3B cells assessed as intracellular ROS level measured after 15 mins by H2DCF-DA probe based flow cytometry (reference value: 4.24 %); type: functional; settings: 0.25 h
HepG2 [38] = test: Induction of apoptosis in human HepG2 cells assessed as decrease in PARP level at 3 to 9 uM measured by western blot analysis; type: functional, cell-based; settings: dose 3-9 µM
HepG2 [39] = test: Induction of apoptosis in human HepG2 cells assessed as decrease in Bcl-2 level measured by western blot analysis; type: functional, cell-based; settings: dose 3-9 µM
HepG2 [40] = test: Induction of mitochondrial membrane potential loss in human HepG2 cells measured after 48 hrs by JC-1 staining based flow cytometry analysis; type: functional, cell-based; settings: dose 3-9 µM
HepG2 [41] = test: Induction ROS generation in human HepG2 cells assessed as intracellular ROS level measured after 4 hrs by H2DCF-DA probe based flow cytometry (reference value: 5.05%); type: functional
Hep 3B2 [42] = test: Induction of autophagy in human Hep3B cells at 9 uM by MDC staining based flow cytometry analysis (reference value: 3.52%); type: functional
Hep 3B2 [43] = test: Induction of apoptosis in human Hep3B cells assessed as early apoptotic cells at 3 uM incubated for 48 hrs by AnnexinV-FITC and propidium iodide staining based flow cytometry analysis (reference value: 3.05%); type: functional
HepG2 [44] = test: Induction ROS generation in human HepG2 cells assessed as intracellular ROS level measured after 30 mins by H2DCF-DA probe based flow cytometry (reference value: 5.05%); type: functional; settings: 0.5 h
HepG2 [45] = test: Activation of JNK phosphorylation in human HepG2 cells by Western blot analysis; type: cell-based; settings: filed as activator, dose 3-9 µM
HepG2 [46] = test: Induction of apoptosis in human HepG2 cells assessed as nuclear condensation at 3 to 9 uM incubated for 48 hrs by Hoechst 33258 staining based fluorescence microscopy analysis; type: functional, cell-based; settings: dose 3-9 µM
HepG2 [47] = test: Induction of apoptosis in human HepG2 cells assessed as increase in FADD level measured by western blot analysis; type: functional, cell-based; settings: dose 3-9 µM
HepG2 [48] = test: Activation of p-38 phosphorylation in human HepG2 cells by Western blot analysis; type: cell-based; settings: filed as activator, dose 3-9 µM
Hep 3B2 [49] = test: Induction of apoptosis in human Hep3B cells assessed as late apoptotic cells at 9 uM incubated for 48 hrs by AnnexinV-FITC and propidium iodide staining based flow cytometry analysis (reference value: 3.32%); type: functional
HepG2 [50] = test: Induction ROS generation in human HepG2 cells assessed as intracellular ROS level measured after 15 mins by H2DCF-DA probe based flow cytometry (reference value: 5.05%); type: functional; settings: 0.25 h
Hep 3B2 [51] = test: Induction ROS generation in human Hep3B cells assessed as intracellular ROS level measured after 2 hrs by H2DCF-DA probe based flow cytometry (reference value: 4.24 %); type: functional
HepG2 [52] = test: Induction of apoptosis in human HepG2 cells assessed as late apoptotic cells at 3 uM incubated for 48 hrs by AnnexinV-FITC and propidium iodide staining based flow cytometry analysis (reference value: 2.46%); type: functional

With C=C(C)C(=O)O[C@H]1CC2=C[C@H](C/C(C)=C/[C@H]3OC(=O)[C@@H](C)C13)OC2=O (stereo partly drawn) as the compound, how does the pIC50 (Hep 3B2 [1]) read?
The pIC50 was < 4.70.

And the pIC50 (HepG2 [2])?
Its pIC50 is < 4.70.

With C/C=C(/C)C(=O)O[C@H]1CC2=C[C@@H](C/C(C)=C/[C@H]3OC(=O)C(CO)=C13)OC2=O as the compound, how does the pIC50 (Hep 3B2 [1]) read?
Its pIC50 is < 4.70.

And the pIC50 (HepG2 [2])?
The pIC50 was < 4.70.

What does the source list for C=C(C)C(=O)O[C@H]1CC2=C[C@@H](C[C@@]3(C)O[C@H]3[C@H]3OC(=O)C(=C)[C@@H]31)OC2=O?
Activity (HepG2 [3]): 37.8%; Activity (HepG2 [4]): 65.9%; Activity (HepG2 [5]): Dose-dependent effect; Activity (Hep 3B2 [6]): 9.85%; Activity (HepG2 [7]): Active; Activity (HepG2 [8]): 14.9%; Activity (HepG2 [9]): Active; Activity (Hep 3B2 [10]): 22.8%; Activity (Hep 3B2 [11]): 39.2%; Activity (HepG2 [12]): 29.1%; Activity (HepG2 [13]): 14.6%; Activity (HepG2 [14]): Active; Activity (Hep 3B2 [15]): 15.7%; Activity (HepG2 [16]): Active; Activity (HepG2 [17]): 13.2%; Activity (Hep 3B2 [18]): Active; Activity (Hep 3B2 [19]): 18.2%; Activity (HepG2 [20]): 33.7%; Activity (Hep 3B2 [21]): 5.56%; Activity (HepG2 [22]): Active; Activity (HepG2 [23]): Dose-dependent effect; Activity (HepG2 [24]): Dose-dependent effect; Activity (Hep 3B2 [25]): Dose-dependent effect; pIC50 (Hep 3B2 [1]): 5.70; Activity (Hep 3B2 [26]): Active; Activity (Hep 3B2 [27]): Active; Activity (Hep 3B2 [28]): Dose-dependent effect; Activity (Hep 3B2 [29]): 15.5%; Activity (HepG2 [30]): 13.1%; Activity (Hep 3B2 [31]): 11.9%; Activity (Hep 3B2 [32]): Active; Activity (Hep 3B2 [33]): Active; Activity (HepG2 [34]): 28.2%; Activity (HepG2 [35]): 9.52%; Activity (Hep 3B2 [36]): 5.04%; Activity (Hep 3B2 [37]): 19.5%; Activity (HepG2 [38]): Active; Activity (HepG2 [39]): Dose-dependent effect; pIC50 (HepG2 [2]): 5.55; Activity (HepG2 [40]): Dose-dependent effect; Activity (HepG2 [41]): 6.58%; Activity (Hep 3B2 [42]): 69.6%; Activity (Hep 3B2 [43]): 5.14%; Activity (HepG2 [44]): 28.9%; Activity (HepG2 [45]): Dose-dependent effect; Activity (HepG2 [46]): Active; Activity (HepG2 [47]): Dose-dependent effect; Activity (HepG2 [48]): Dose-dependent effect; Activity (Hep 3B2 [49]): 31.9%; Activity (HepG2 [50]): 19.9%; Activity (Hep 3B2 [51]): 7.42%; Activity (HepG2 [52]): 4.56%

C=C(C)C(=O)O[C@H]1CC2=C[C@H](CC(=C)[C@@H](O)[C@H]3OC(=O)C(=C)[C@@H]31)OC2=O was tested. Which pIC50 (Hep 3B2 [1]) did it give?
Its pIC50 is 5.06.

What about the pIC50 (HepG2 [2]) of the same compound?
Its pIC50 is 5.07.
